Literature values, collected in PubChem BioAssay AID1259409 (Chemical Carcinogenesis Research Information System (CCRIS), 2018).
“And” between values parts separate entries of the source, which are not always exact repeats. Equal entries are not always repeated.

Tested on: rodent chemically induced tumor inhibition, incidence and multiplicity
Assay: CCRIS tumor inhibitor studies
Conditions: Route [Inhibitor]: ORAL

SMILES: NC(=O)c1cccnc1
- tumour outcome (control, treated, inhibition, significance) (Carcinogen: 3'-METHYL-4-DIMETHYLAMINOAZOBENZENE, 55-80-1, Dose [Inhibitor]: 0.29% IN DIET DAILY FOR 4 WK STARTING 4 WK AFTER THE START OF CARCINOGEN TREATMENT (STUDY DURATION: 20 WK), Species: RAT, Target Tissue: Type of Lesion: LIVER: TUMOR, Dose [Carcinogen]: 0.064% IN DIET DAILY FOR 4 WK THEN A 4 WK CARCINOGEN-FREE PERIOD FOLLOWED BY 0.048% FOR AN ADDITIONAL 4 WK, Promoter: NONE USED): 4/10 (40%), 10/11 (91%), -128%, not calculated
- tumour outcome (control, treated, inhibition, significance) (Carcinogen: 3'-METHYL-4-DIMETHYLAMINOAZOBENZENE, 55-80-1, Dose [Inhibitor]: 0.29% IN DIET DAILY FOR 4 WK STARTING AFTER COMPLETION OF CARCINOGEN TREATMENT (STUDY DURATION: 20 WK), Species: RAT, Target Tissue: Type of Lesion: LIVER: TUMOR, Dose [Carcinogen]: 0.064% IN DIET DAILY FOR 4 WK, Promoter: NONE USED): 7/15 (47%), 0/17 (0%), 100%, not calculated
- tumour outcome (control, treated, inhibition, significance) (Carcinogen: 3'-METHYL-4-DIMETHYLAMINOAZOBENZENE, 55-80-1, Dose [Inhibitor]: 0.29% IN DIET DAILY FOR 4 WK STARTING AFTER COMPLETION OF THE FIRST 4 WK OF CARCINOGEN TREATMENT (STUDY DURATION: 20 WK), Species: RAT, Target Tissue: Type of Lesion: LIVER: TUMOR, Dose [Carcinogen]: 0.064% IN DIET DAILY FOR 4 WK BEFORE AND ANOTHER 4 WK AFTER AGENT TREATMENT, Promoter: NONE USED): 7/15 (47%), 9/14 (64%), -36%, not calculated and 7/9 (78%), 6/9 (67%), 14%, not calculated
- tumour outcome (control, treated, inhibition, significance) (Carcinogen: 7,12-DIMETHYLBENZ[A]ANTHRACENE, 57-97-6, Dose [Inhibitor]: 0.2% IN DRINKING WATER DAILY STARTING 4 WK BEFORE CARCINOGEN TREATMENT AND CONTINUING FOR DURATION OF THE STUDY (STUDY D, Species: MOUSE, Strain/Sex: 101/MALE, FEMALE, Target Tissue: Type of Lesion: SKIN: PAPILLOMA, Dose [Carcinogen]: 225 UG IN 0.15 ML ACETONE ONCE, Promoter: CROTON OIL, 8001-28-3): 17/19 (89%), 17/19 (89%), 0%, not calculated
- tumour outcome (control, treated, inhibition, significance) (Carcinogen: N-NITROSOBIS(2-OXOPROPYL)AMINE, 60599-38-4, Dose [Inhibitor]: 0, 0.2% IN DRINKING WATER FOR 49 WK BEGINNING POST CARCINOGEN TREATMENT (STUDY DURATION: 52 WK), Species: HAMSTER, Strain/Sex: SYRIAN/FEMALE, Target Tissue: Type of Lesion: PANCREAS: ADENOCARCINOMA, Dose [Carcinogen]: 10 MG/KG 1/WK FOR 3 WK, Promoter: NONE USED): 18/30 (60%), 18/29 (62%), -3%, not significant
- tumour outcome (control, treated, inhibition, significance) (Carcinogen: N-NITROSOBIS(2-OXOPROPYL)AMINE, 60599-38-4, Dose [Inhibitor]: 0, 0.2% IN DRINKING WATER FOR 49 WK POST CARCINOGEN TREATMENT (STUDY DURATION: 52 WK), Species: HAMSTER, Strain/Sex: SYRIAN GOLDEN/FEMALE, Target Tissue: Type of Lesion: KIDNEY: NEPHROBLASTOMA, Dose [Carcinogen]: 10 MG/KG BW 1/WK FOR FIRST 3 WK OF STUDY DURATION, Promoter: NONE): 2/30 (7%), 0/29 (0%), 100%, not significant
- outcome (Carcinogen: N-NITROSOBIS(2-OXOPROPYL)AMINE, 60599-38-4, Dose [Inhibitor]: 0, 0.2% IN DRINKING WATER FOR 49 WK POST CARCINOGEN TREATMENT (STUDY DURATION: 52 WK), Species: HAMSTER, Strain/Sex: SYRIAN GOLDEN/FEMALE, Target Tissue: Type of Lesion: KIDNEY: RENAL CELL ADENOMA, Dose [Carcinogen]: 10 MG/KG BW 1/WK FOR FIRST 3 WK OF STUDY DURATION, Promoter: NONE): 0/30 (0%), 1/29 (3%),-%, not significant
- tumour outcome (control, treated, inhibition, significance) (Carcinogen: N-NITROSOBIS(2-OXOPROPYL)AMINE, 60599-38-4, Dose [Inhibitor]: 0, 0.2% IN DRINKING WATER FOR 49 WK POST CARCINOGEN TREATMENT (STUDY DURATION: 52 WK), Species: HAMSTER, Strain/Sex: SYRIAN GOLDEN/FEMALE, Target Tissue: Type of Lesion: KIDNEY: RENAL CELL CARCINOMA, Dose [Carcinogen]: 10 MG/KG BW 1/WK FOR FIRST 3 WK OF STUDY DURATION, Promoter: NONE): 1/30 (3%), 1/29 (3%), 0%, not significant
- tumour outcome (control, treated, inhibition, significance) (Carcinogen: N-NITROSOBIS(2-OXOPROPYL)AMINE, 60599-38-4, Dose [Inhibitor]: 0, 0.2% IN DRINKING WATER FOR 49 WK POST CARCINOGEN TREATMENT (STUDY DURATION: 52 WK), Species: HAMSTER, Strain/Sex: SYRIAN GOLDEN/FEMALE, Target Tissue: Type of Lesion: LIVER: CHOLANGIOCELLULAR ADENOMA, Dose [Carcinogen]: 10 MG/KG BW 1/WK FOR FIRST 3 WK OF STUDY DURATION, Promoter: NONE): 1/30 (3%), 2/29 (7%), -133%, not significant
- outcome (Carcinogen: N-NITROSOBIS(2-OXOPROPYL)AMINE, 60599-38-4, Dose [Inhibitor]: 0, 0.2% IN DRINKING WATER FOR 49 WK POST CARCINOGEN TREATMENT (STUDY DURATION: 52 WK), Species: HAMSTER, Strain/Sex: SYRIAN GOLDEN/FEMALE, Target Tissue: Type of Lesion: LIVER: CHOLANGIOCELLULAR CARCINOMA, Dose [Carcinogen]: 10 MG/KG BW 1/WK FOR FIRST 3 WK OF STUDY DURATION, Promoter: NONE): 0/30 (0%), 5/29 (17%), -%, p<0.05
- outcome (Carcinogen: N-NITROSOBIS(2-OXOPROPYL)AMINE, 60599-38-4, Dose [Inhibitor]: 0, 0.2% IN DRINKING WATER FOR 49 WK POST CARCINOGEN TREATMENT (STUDY DURATION: 52 WK), Species: HAMSTER, Strain/Sex: SYRIAN GOLDEN/FEMALE, Target Tissue: Type of Lesion: LIVER: CYSTADENOMA, Dose [Carcinogen]: 10 MG/KG BW 1/WK FOR FIRST 3 WK OF STUDY DURATION, Promoter: NONE): 0/30 (0%), 0/29 (0%), 0%, not significant
- tumour outcome (control, treated, inhibition, significance) (Carcinogen: N-NITROSOBIS(2-OXOPROPYL)AMINE, 60599-38-4, Dose [Inhibitor]: 0, 0.2% IN DRINKING WATER FOR 49 WK POST CARCINOGEN TREATMENT (STUDY DURATION: 52 WK), Species: HAMSTER, Strain/Sex: SYRIAN GOLDEN/FEMALE, Target Tissue: Type of Lesion: LIVER: HEPATOCELLULAR ADENOMA, Dose [Carcinogen]: 10 MG/KG BW 1/WK FOR FIRST 3 WK OF STUDY DURATION, Promoter: NONE): 2/30 (7%), 4/29 (14%), -100%, not significant
- tumour outcome (control, treated, inhibition, significance) (Carcinogen: N-NITROSOBIS(2-OXOPROPYL)AMINE, 60599-38-4, Dose [Inhibitor]: 0, 0.2% IN DRINKING WATER FOR 49 WK POST CARCINOGEN TREATMENT (STUDY DURATION: 52 WK), Species: HAMSTER, Strain/Sex: SYRIAN GOLDEN/FEMALE, Target Tissue: Type of Lesion: LIVER: HEPATOCELLULAR CARCINOMA, Dose [Carcinogen]: 10 MG/KG BW 1/WK FOR FIRST 3 WK OF STUDY DURATION, Promoter: NONE): 2/30 (7%), 1/29 (3%), 57%, not significant
- tumour outcome (control, treated, inhibition, significance) (Carcinogen: N-NITROSOBIS(2-OXOPROPYL)AMINE, 60599-38-4, Dose [Inhibitor]: 0, 0.2% IN DRINKING WATER FOR 49 WK POST CARCINOGEN TREATMENT (STUDY DURATION: 52 WK), Species: HAMSTER, Strain/Sex: SYRIAN GOLDEN/FEMALE, Target Tissue: Type of Lesion: LUNG: ADENOCARCINOMA, Dose [Carcinogen]: 10 MG/KG BW 1/WK FOR FIRST 3 WK OF STUDY DURATION, Promoter: NONE): 11/30 (37%), 8/29 (28%), 24%, not significant
- tumour outcome (control, treated, inhibition, significance) (Carcinogen: N-NITROSOBIS(2-OXOPROPYL)AMINE, 60599-38-4, Dose [Inhibitor]: 0, 0.2% IN DRINKING WATER FOR 49 WK POST CARCINOGEN TREATMENT (STUDY DURATION: 52 WK), Species: HAMSTER, Strain/Sex: SYRIAN GOLDEN/FEMALE, Target Tissue: Type of Lesion: LUNG: ADENOMA, Dose [Carcinogen]: 10 MG/KG BW 1/WK FOR FIRST 3 WK OF STUDY DURATION, Promoter: NONE): 15/30 (50%), 18/29 (62%), -24%, not significant
- tumour outcome (control, treated, inhibition, significance) (Carcinogen: N-NITROSOBIS(2-OXOPROPYL)AMINE, 60599-38-4, Dose [Inhibitor]: 0, 0.2% IN DRINKING WATER FOR 49 WK POST CARCINOGEN TREATMENT (STUDY DURATION: 52 WK), Species: HAMSTER, Strain/Sex: SYRIAN GOLDEN/FEMALE, Target Tissue: Type of Lesion: LUNG: SQUAMOUS CELL CARCINOMA, Dose [Carcinogen]: 10 MG/KG BW 1/WK FOR FIRST 3 WK OF STUDY DURATION, Promoter: NONE): 2/30 (7%), 0/29 (0%), 100%, not significant
- tumour outcome (control, treated, inhibition, significance) (Carcinogen: N-NITROSOBIS(2-OXOPROPYL)AMINE, 60599-38-4, Dose [Inhibitor]: 0, 0.2% IN DRINKING WATER FOR 49 WK POST CARCINOGEN TREATMENT (STUDY DURATION: 52 WK), Species: HAMSTER, Strain/Sex: SYRIAN GOLDEN/FEMALE, Target Tissue: Type of Lesion: PANCREAS (DUCTAL): ADENOCARCINOMA, Dose [Carcinogen]: 10 MG/KG BW 1/WK FOR FIRST 3 WK OF STUDY DURATION, Promoter: NONE): 18/30 (60%), 18/29 (62%), -3%, not significant
- tumour outcome (control, treated, inhibition, significance) (Carcinogen: N-NITROSOBIS(2-OXOPROPYL)AMINE, 60599-38-4, Dose [Inhibitor]: 0, 0.2% IN DRINKING WATER FOR 49 WK POST CARCINOGEN TREATMENT (STUDY DURATION: 52 WK), Species: HAMSTER, Strain/Sex: SYRIAN GOLDEN/FEMALE, Target Tissue: Type of Lesion: THYROID: ADENOMA, Dose [Carcinogen]: 10 MG/KG BW 1/WK FOR FIRST 3 WK OF STUDY DURATION, Promoter: NONE): 1/30 (3%), 0/29 (0%), 100%, not significant
